Assay results published in patent US9315816B2, “Method for rapidly developing gene switches and gene circuits” (National University Corporation Chiba University, priority 2010, dated 2016).

Assays:
[1] = tested on: TK-deficient E. coli strain in which hsvTK was expressed (hsvTK+); assay: ON selection: 5FdU concentration vs viable cell count, hsvTK+; type: cell-based, Escherichia coli
Procedure: With the TK-deficient strain of E. coli JW1226, a human herpes virus derived thymidine kinase (hsvTK) was expressed by transfecting pTrc-hsvtk (FIG. 3), and a relationship between the concentration of 5FdU and the survival rate of cells (viable cell count) was investigated.
First, JW1226 cells transfected with pTrc-hsvtk were diluted with 1 mL of positive selection medium so as to achieve an OD600 of 0.002 (approximately 10^6 cells/mL), and cultured at 37° C. for 12 hours while being rotated at 200 rpm. The positive selection medium used was medium containing tryptone at 2% w/v, NaCl at 0.5% w/v, dT at 10 μg/mL, adenosine at 1 μg/mL, and 5FdU at 0 to 25 μg/mL. After the culture, a portion of the resultant culture was collected and inoculated in an LB plate containing ampicillin, and the number of colonies grown was counted as a viable cell count.

[2] = tested on: TK-deficient E. coli strain in which hsvTK was not expressed (hsvTK−); assay: ON selection: 5FdU concentration vs viable cell count, hsvTK−; type: cell-based, Escherichia coli; settings: 5FdU 0 to 25 μg/mL, 12 hours
[3] = tested on: E. coli MV2157 transfected with selector plasmid Ver. 2 and Circuit-C or Circuit-D; assay: ON selection of genetic circuit with selector plasmid Ver. 2 under MMS; type: cell-based, Escherichia coli
Procedure: First, E. coli MV2157 transfected with selector plasmid Ver. 2 and Circuit-C (referred to as “ON strain” in Example 3), and E. coli MV2157 transfected with selector plasmid Ver. 2 and […] (referred to as “OFF strain” in Example 3) were prepared. […] The cell density at the time of the MMS treatment is approximately 10^8 cells/mL. […] A value obtained by dividing the viable cell count of the sample to which MMS had been added by the viable cell count of the sample to which MMS had not been added was defined as a survival rate.
Next, time-dependent changes in the survival rates of the ON strain and the OFF strain when MMS was added at 0.2% were investigated. In this case, an ON strain transfected with pTrc-ape1 was prepared and similarly studied for comparison. Culture and treatment with MMS of each strain of E. coli were conducted by similar methods to the methods in the foregoing.

[4] = tested on: E. coli MV2157 switch strains with selector plasmid Ver. 2; assay: Enrichment efficiency by dual selection, Circuit-B:C:D = 1:100:100; type: cell-based, Escherichia coli; settings: 0.4% MMS, 30 minutes, approximately 10^6 cells/mL
Procedure: Next, enrichment efficiency by dual selection was evaluated. Selector plasmid Ver. 2 (FIG. 13-B) was used as a selector plasmid, and the following three kinds of model genetic circuits were used: Circuit-B; Circuit-C; and Circuit-D (see FIGS. 2-B, 2-C, and 2-D). The selector plasmid and one kind of model genetic circuit were transfected into E. coli MV2157. Each switch strain was inoculated in 2 mL of LB medium containing AHL, and cultured at 37° C. for 12 hours. Next, the switch strains having Circuit-B, Circuit-C, or Circuit-D were mixed at an abundance ratio of 1:100:100 in terms of OD. The mixed cell population was subjected to OFF selection by the same method as above, and then cultured at 37° C. for 2 hours. The cells were harvested by centrifugation, the medium was exchanged for M9 minimal medium, MMS was added at a concentration of 0.2%, 0.3%, or 0.4%, and the whole was left to stand still at 37° C. for 30 minutes (ON selection). After that, the medium was exchanged for LB medium, culture was conducted for 12 hours, and plasmids were extracted from the culture solution. The plasmids were transformed together with pλ-gfp into XL10-GOLD™ ultracompetent cells (Agilent Technologies). After that, the transformed cells were inoculated in solid media supplemented and not supplemented with AHL, and the numbers of cells expressing GFP were compared. […]

[5] = tested on: alkylating agent-sensitive E. coli strain MV2157; assay: ON-selector function of AAG gene: survival rate under MMS; type: cell-based, Escherichia coli
Procedure: The ON-selector function of the AAG gene was studied. First, alkylating agent-sensitive E. coli strains MV2157 were separately transfected with plasmids containing AAG and variants thereof, specifically, pTrc-aag (WT), pTrc-aag (E125A), and pTrc-aag-ape1 prepared in Example 1, and were compared for their survival rates in the presence/absence of MMS. The E. coli strain transfected with pTrc-aag (E125A) was used as a negative control.
Next, 1 μL of culture was inoculated in LB liquid medium, and cultured at 37° C. for 3 hours. MMS was added at a final concentration of 0 to 40 mM, and culture was conducted at 37° C. for 15 to 60 minutes. […] A value obtained by dividing the viable cell count of the sample to which MMS had been added by the viable cell count of the sample to which MMS had not been added was defined as a survival rate.

E. coli cell population = settings: 37 μM dP; cited from earlier work
[6] = tested on: TK-deficient E. coli strain JW1226 in which hsvTK was expressed (hsvTK+); assay: OFF selection: dP concentration vs viable cell count, hsvTK+; type: cell-based, Escherichia coli; settings: dP 0 to 100 nM, 12 hours
Procedure: With the TK-deficient E. coli strain JW1226, human herpes virus derived thymidine kinase (hsvTK) was expressed by transfecting pTrc-hsvtk (FIG. 3), and a relationship between the concentration of dP and the survival rate of cells (viable cell count) was investigated.
First, JW1226 cells transfected with pTrc-hsvtk were cultured in 2 mL of LB medium containing 100 μg/mL of ampicillin at 37° C. overnight. Next, the culture was diluted with 1 mL of fresh LB medium containing dP (at a final concentration of 0 to 100 nM) 1,000-fold (10^6 cells/mL), and stirred and shaken at 37° C. for 12 hours. After the culture, the cells were seeded on an LB-agar (1.5% w/v) plate containing ampicillin at 100 μg/mL. After incubation at 37° C. for 12 hours, the number of colonies grown was counted as a viable cell count.

[7] = tested on: TK-deficient E. coli strain transfected with a control plasmid pTrc99A (hsvTK−); assay: OFF selection: dP concentration vs viable cell count, hsvTK− control; type: cell-based, Escherichia coli; settings: dP 0 to 100 nM, 12 hours
[8] = tested on: TK-deficient cells transfected with pTrc-hsvtk constantly expressing hsvTK; assay: Rapidity of OFF selection (dP shock); type: cell-based, Escherichia coli; settings: dP 1 μM; 5, 30 or 60 minutes
Procedure: First, TK-deficient cells transfected with pTrc-hsvtk (FIG. 3) so as to constantly express hsvTK were cultured under shaking at 37° C. and 200 rpm until an OD of 0.05 (approximately 3×10^7 cells/mL) was achieved. The resultant was dispensed at 1 mL each, dP was added (final concentration: 1 μM), and culture was continued at 37° C. After a lapse of 5, 30, or 60 minutes, 20 μL of the culture (approximately 10^6 cells) were collected and inoculated in an LB plate containing ampicillin, and the number of colonies grown was counted as a viable cell count.

## O=c1[nH]c(=O)n([C@H]2C[C@H](O)[C@@H](CO)O2)cc1F [5FdU, 5-fluoro-2′-deoxyuridine]
[1]; 5FdU 0 to 25 μg/mL, 12 hours, hsvTK+
  viable cell count: decreased at a slow rate
[1]; 5FdU 25 μg/mL
  survival rate of hsvTK+ as compared to hsvTK−: 4.8×10^7 fold
[2]
  viable cell count: decreased with increasing concentrations of 5FdU

## CS(=O)(=O)O [MMS, methanesulfonic acid]
[3]; MMS 0.2-0.4%, 15 to 60 minutes
  survival rate of OFF strain (AAG not expressed): significantly decreased
  survival rate of ON strain (AAG expressed): only slightly reduced
[3]; MMS 0.4%, 30 minutes
  difference in survival rate between the OFF strain and the ON strain: ≥ 10^4 fold
[4]
  cell survival in ON selection: all the cells were killed
[5]; MMS 20 mM, 60 minutes
  survival rates of cells expressing AAG: significantly decreased
[5]; MMS treatment 15 to 60 minutes
  enrichment of cells expressing AAG: ~1,000 fold
[5]; MMS ~40 mM
  survival of all the strains: mostly died off

## O=C1NC2=NOCCC2=CN1[C@H]1C[C@H](O)[C@@H](CO)O1 [dP, 6-(β-D-2-Deoxyribo-furanosyl)-3,4-dihydro-8H-pyrimido[4,5-c][1,2]oxazin-7-one]
E. coli cell population
  fraction of E. coli cell population killed: 80%
[6]
  viable cell count: significantly decreased in a dP concentration-dependent manner
[7]
  survival rate: no reduction in survival rate
[8]
  viable cell count after dP shock: almost zero

## pTrc-aag (WT): ON-selector plasmid containing a wild-type AAG gene
[5]; 3-methyladenine repair enzyme-deficient strain
  MMS resistance: acquisition of MMS resistance has been confirmed
